Results as given in PubChem BioAssay (NCI).
Values joined by “and” are separate entries in the source; they are usually repeats but may differ in a detail not shown here. Equal entries are not always repeated.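 A five-concentration, 48-hour dose response in 96-well plates underlies each endpoint, interpolated linearly between surrounding concentrations. Here, GI50 denotes the concentration required for 50% inhibition of growth. TGI is the concentration that stops growth completely.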

Key:
Assay in all cases: NCI tumour cell line growth inhibition, 48 h
M19-MEL melanoma = tested on: M19-MEL melanoma
SNB-78 CNS = tested on: SNB-78 CNS
DMS 273 small cell lung = tested on: DMS 273 small cell lung
XF 498 CNS = tested on: XF 498 CNS
SN12K1 renal = tested on: SN12K1 renal
MDA-N = tested on: MDA-N
PC-3 prostate = tested on: PC-3 prostate
MDA-MB-231 breast = tested on: MDA-MB-231 breast
P388/ADR leukemia = tested on: P388/ADR leukemia
BT-549 breast = tested on: BT-549 breast
MDA-MB-435 = tested on: MDA-MB-435

Row | Compound | TGI (M19-MEL melanoma) | TGI (SNB-78 CNS) | TGI (DMS 273 small cell lung) | TGI (XF 498 CNS) | also measured
1 | O=C(Nc1ccc(Cl)cc1Cl)C(=O)C(C(=O)c1ccc2ccccc2c1)C1OC(=O)c2ccccc21 (centres undefined) | 30.3 µM | 78.4 µM | – | – | –
2 | O=C(O)C1C2CCC(O2)C1C(=O)N1CCCCC1 (centres undefined) | 21.9 µM | 38.3 µM | 23.3 µM | – | –
3 | CCCNCCCC(NC(C)=O)C(=O)NCc1ccccc1 (centres undefined) | > 100 µM | > 100 µM | > 100 µM | > 100 µM | –
4 | O=C(c1ccc(Cl)cc1)c1ccc(OCCCCCCCCCCOc2ccc(C(=O)c3ccc(Cl)cc3)cc2)cc1 | – | > 100 µM | > 100 µM | – | –
5 | COc1ccccc1/C=C1\CCC(CCN(C)C)(C2=CCCC2)C1=O (centres undefined) | 31.7 µM | 65.9 µM | 32.1 µM | 31.7 µM | –
6 | Oc1cc(O)c(Oc2cccc(O)c2O)c(O)c1 | 45.9 µM | > 100 µM | > 100 µM | > 100 µM | –
7 | COc1cc(/C=C\c2ccccc2)cc(OC)c1OC | > 100 µM | > 89.8 µM | 11.5 µM | 23.7 µM | –
8 | CS(=O)(=O)OCCN1CCN(C(=O)c2cccc3c(Nc4ccc(S(=O)(=O)N=C(N)N)cc4)c4ccccc4nc23)CC1 | > 100 µM | > 100 µM | > 100 µM | > 100 µM | –
9 | O=C(/C=C/c1ccccc1)CC1OC(=O)c2ccccc21 (centres undefined) | > 100 µM | – | > 100 µM | > 100 µM | –
10 | Nc1nc2c(c(=O)[nH]1)NC(CO)CN2 (centres undefined) | > 100 µM | – | > 100 µM | > 100 µM | –
11 | COC1=CC(=O)C2C(C1=O)[C@@H]1c3ccccc3C[C@H]21 (some centres undefined) | > 100 µM | > 100 µM | > 100 µM | > 100 µM | –
12 | CC1CC2CC(=O)CC3(C1)C2CCCN3CCCO (centres undefined) | > 100 µM | > 100 µM | > 100 µM | > 100 µM | –
13 | CC(=O)N[C@@H]1C(O)CN2C(=O)C(=O)O[C@H](C(O)CO)[C@@H]12 (some centres undefined) | > 100 µM | > 100 µM | > 100 µM | > 100 µM | –
14 | CC1CC#CCOC(=O)CCCC1=O (centres undefined) | > 100 µM | > 100 µM | > 100 µM | > 100 µM | –
15 | COc1ccccc1N=C(N)N/N=C/c1c[nH]c2ccccc12 | 24.7 µM | 25.1 µM | – | 16.9 µM | –
16 | CC[C@@]1(O)C[C@H](OC2CC(N(C)C)C(OC3CC(O)C(OC4CCC(=O)C(C)O4)C(C)O3)C(C)O2)c2c(cc3c(c2O)C(=O)c2c(O)cccc2C3=O)[C@H]1C(=O)OC (some centres undefined) | 0.144 µM and 0.279 µM | – | – | 0.165 µM and 0.0552 µM | TGI (SN12K1 renal): 0.101 µM; TGI (MDA-N): 0.0485 µM and 0.131 µM; TGI (PC-3 prostate): 0.132 µM and 0.062 µM; TGI (MDA-MB-231 breast): 0.198 µM; TGI (P388/ADR leukemia): 0.659 µM; GI50 (XF 498 CNS): 0.00681 µM and 0.0282 µM and 0.0236 µM
17 | COC[C@@H](N=CN1CCc2cc(OC)c(OC)cc2[C@@H]1C)C(C)(C)C | > 100 µM | – | – | > 100 µM | –
18 | NCCCOCC(=O)O | > 100 µM | > 100 µM | > 100 µM | – | –
19 | CC(=O)Nc1ccc(C(=O)NN2C(=O)C(Cl)C2c2ccc([N+](=O)[O-])cc2)cc1 (centres undefined) | > 100 µM | > 100 µM | > 100 µM | > 100 µM | –
20 | C=CC1[C@H]2COC(C)(C)O[C@@H]2CC(=O)C1(C)C (some centres undefined) | > 100 µM | > 100 µM | > 100 µM | > 100 µM | –

Row | Compound | TGI (M19-MEL melanoma) | TGI (SNB-78 CNS) | TGI (DMS 273 small cell lung) | TGI (XF 498 CNS) | also measured
21 | O=C1C=CC=CC2CC=C[C@@H](O)C12 (some centres undefined) | 34.2 µM | > 100 µM | 51.5 µM | – | –
22 | CC(C)C1(O)C(c2ccccc2)=C(c2ccccc2)C(c2ccccc2)=C1c1ccccc1 | – | > 100 µM | 37.1 µM | 14.2 µM | –
23 | CCCCC1CC(c2cccc([N+](=O)[O-])c2)=NO1 (centres undefined) | > 100 µM | > 100 µM | > 100 µM | – | –
24 | CN(C)c1ccc([O-])cc1.CN(C)c1ccc([O-])cc1.CN(C)c1ccc([O-])cc1.CN(C)c1ccc([O-])cc1.[Ti+4] | > 100 µM | > 100 µM | > 100 µM | > 100 µM | GI50 (DMS 273 small cell lung): 34.3 µM; GI50 (M19-MEL melanoma): > 100 µM; GI50 (SNB-78 CNS): > 100 µM; GI50 (XF 498 CNS): > 100 µM
25 | C=C(CCCCCCCCC)CC(=O)SCCNC(=O)CCNC(=O)C(O)C(C)(C)COP(=O)(O)OP(=O)(O)OCC1OC(n2cnc3c(N)ncnc32)C(O)C1OP(=O)(O)O (centres undefined) | 87.8 µM | 65 µM | 45.2 µM | > 100 µM | TGI (MDA-N): > 76.6 µM; TGI (BT-549 breast): > 100 µM; TGI (PC-3 prostate): > 100 µM; TGI (MDA-MB-231 breast): > 100 µM; TGI (MDA-MB-435): 67.7 µM
26 | O=C(Nc1cccc([N+](=O)[O-])c1)C(=O)C(C(=O)c1ccccc1-c1ccccc1)C1OC(=O)c2ccccc21 (centres undefined) | 38.1 µM | > 100 µM | – | 41.4 µM | –
27 | CC1OC(OCC2OC(Oc3c(-c4ccc(O)cc4)oc4cc(O)cc(O)c4c3=O)C(OC3OC(C)C(O)C(O)C3O)C(O)C2O)C(O)C(O)C1O (centres undefined) | > 100 µM | > 100 µM | > 100 µM | > 100 µM | –
28 | NC1CCCCC1.[O]=[Ge].[O]=[Ge].[O]=[Ge][OH].[O]=[Ge][OH] | > 100 µM | > 100 µM | > 100 µM | > 100 µM | GI50 (XF 498 CNS): > 100 µM
29 | COc1cc(/C=C\c2ccc(C)cc2)cc(OC)c1OC | > 100 µM | – | 17.4 µM | – | TGI (MDA-N): 0.00521 µM; GI50 (PC-3 prostate): 0.0173 µM; TGI (PC-3 prostate): > 100 µM; GI50 (M19-MEL melanoma): 0.0127 µM; TGI (MDA-MB-435): 0.0672 µM
30 | COC(=O)C1C(O)CC(c2ccccn2)N(Cc2ccccc2)C1c1ccccn1 (centres undefined) | > 100 µM | > 100 µM | > 100 µM | – | –
31 | CCOC(=O)C1(Br)C(c2ccccc2)NC(=O)NC1(C)Br (centres undefined) | > 100 µM | > 100 µM | > 100 µM | > 100 µM | GI50 (BT-549 breast): 14 µM; TGI (BT-549 breast): 65.9 µM; GI50 (PC-3 prostate): 22.3 µM; TGI (PC-3 prostate): > 100 µM; GI50 (MDA-MB-231 breast): 27.8 µM; TGI (MDA-MB-231 breast): > 100 µM; GI50 (MDA-MB-435): 20.5 µM; TGI (MDA-MB-435): 57.3 µM
32 | Cn1nc(-c2ccccc2)c(C(=O)/C=C/c2ccc(F)cc2)c(N2CCCCC2)c1=O | 35.3 µM | – | 28.8 µM | 60.2 µM | –
33 | CCCCc1c2c(nc3c1CCc1cc4cc5c(nc4nc1-3)-c1nc3c(c(CCCC)c1CC5)CCCC3)CCCC2 | > 100 µM | > 100 µM | > 100 µM | – | –
34 | CCc1cccc(C(C)C)c1NC(=O)C(=O)CC(=O)c1c(C)n([O-])c2ccccc2[n+]1=O | > 100 µM | > 100 µM | – | > 100 µM | –
35 | O=C(O)COc1ccc(O)c2c1C(=O)CCCC2=O | > 100 µM | > 100 µM | > 100 µM | > 100 µM | –
36 | O=Cc1ccccc1OCCOc1cc(OCCOc2ccccc2C=O)c(OCCOc2ccccc2C=O)cc1OCCOc1ccccc1C=O | > 100 µM | > 100 µM | > 100 µM | > 71.5 µM | –
37 | CC1(C)C(=O)C(C)(C)C1=NN | > 100 µM | > 100 µM | > 100 µM | > 100 µM | –
38 | OCCCOC(c1ccccc1)(c1ccccc1)c1ccccc1 | > 100 µM | > 100 µM | > 100 µM | > 100 µM | –
39 | CC(=O)NNc1nc(C)c(C(=O)NNC(=O)C(=O)Nc2c(C)cccc2C)s1 | 79.7 µM | > 100 µM | > 100 µM | – | –
40 | O=C(c1ccccc1)C1CCCCN1C(=O)c1ccccc1 (centres undefined) | > 100 µM | > 100 µM | > 100 µM | – | –
